The experiment concerns the target T1, Human Factor XIIa (Homo sapiens, UniProt P00748).
T1 construct: Proteolytic cleavage of FXII to heavy and light chains of FXIIa dramatically increases catalytic activity; purchased Enzyme Research Laboratories
T1 sequence (P00748 373-615 limits assumed): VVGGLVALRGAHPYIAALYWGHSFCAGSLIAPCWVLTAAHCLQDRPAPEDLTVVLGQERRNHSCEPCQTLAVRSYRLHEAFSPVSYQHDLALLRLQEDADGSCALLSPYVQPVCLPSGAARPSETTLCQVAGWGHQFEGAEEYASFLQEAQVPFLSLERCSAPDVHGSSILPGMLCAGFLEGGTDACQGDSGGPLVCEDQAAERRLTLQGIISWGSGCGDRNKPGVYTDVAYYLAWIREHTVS
T1 sequence (P00748 20-372 partner limits assumed): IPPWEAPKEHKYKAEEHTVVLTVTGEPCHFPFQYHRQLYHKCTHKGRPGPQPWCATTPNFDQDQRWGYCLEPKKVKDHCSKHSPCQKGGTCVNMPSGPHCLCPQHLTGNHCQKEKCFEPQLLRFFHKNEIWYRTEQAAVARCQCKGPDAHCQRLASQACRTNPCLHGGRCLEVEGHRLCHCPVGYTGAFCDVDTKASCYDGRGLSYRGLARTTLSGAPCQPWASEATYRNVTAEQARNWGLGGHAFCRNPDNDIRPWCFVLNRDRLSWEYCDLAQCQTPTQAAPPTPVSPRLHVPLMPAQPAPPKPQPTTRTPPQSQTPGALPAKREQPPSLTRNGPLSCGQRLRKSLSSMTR
As to the kind of experiment: Determination of FXIIa inhibition (fluorogenic substrate H-DPro-Phe-Arg-AFC, IC50 assay). It counts as biochemical. As to conditions: substrate at Km concentration, 25° C.; category scale; read-out: Human FXII IC50 (nm). Here is the method:
In vitro inhibition of Factor XIIa was determined using an IC50 assay based on standard literature methods (see e.g Baeriswyl et al., ACS Chem. Biol., 2015, 10 (8) 1861; Bouckaert et al., European Journal of Medicinal Chemistry 110 (2016) 181). Human Factor XIIa (Enzyme Research Laboratories) was incubated at 25° C. with the fluorogenic substrate H-DPro-Phe-Arg-AFC (Peptide Protein Science) and various concentrations of the test compound. Protease activity was measured by monitoring the accumulation of liberated fluorescence from the substrate over 5 min at 25° C. The linear rate of fluorescence increase per minute was expressed as percentage (%) activity. The Km for the cleavage of the substrate by FXIIa was determined by standard transformation of the Michaelis-Menten equation. The compound inhibitor assays were performed at substrate Km concentration. IC50 values were calculated as the concentration of inhibitor giving 50% inhibition (IC50) of the uninhibited enzyme activity (100%).
As a reminder, the IC50 is the point on the concentration scale where inhibition reaches its midpoint. `Nc1nccc2c(NCC34CC(COc5ccn6ncnc6c5)(C3)C4)cccc12` [Example 1110, N5-((3-(([1,2,4]triazolo[1,5-a]pyridin-7-yloxy)methyl)bicyclo[1.1.1]pentan-1-yl)methyl)isoquinoline-1,5-diamine]: the IC50 lay in the range of 3000 to 10000 nM.
For `Nc1nccc2c(NCC34CC(NC(=O)c5ccc6nnc(C(F)F)n6c5)(C3)C4)cccc12` [Example 1132, N-(3-(((1-aminoisoquinolin-5-yl)amino)methyl)bicyclo[1.1.1]pentan-1-yl)-3-(difluoromethyl)-[1,2,4]triazolo[4,3-a]pyridine-6-carboxamide] the value was 10000 to 40000 nM.
As for `Nc1nccc2c(NCC34CC(COc5ccc6c(c5)CNC6=O)(C3)C4)cccc12` [Example 1133, 5-((3-(((1-aminoisoquinolin-5-yl)amino)methyl)bicyclo[1.1.1]pentan-1-yl)methoxy)isoindolin-1-one], the concentration for half-maximal inhibition (IC50) was 100 to 300 nM.
For `Cc1cc(OCC23CC(CNc4cccc5c(N)nccc45)(C2)C3)cc(=O)n1C` [Example 1134, 4-((3-(((1-aminoisoquinolin-5-yl)amino)methyl)bicyclo[1.1.1]pentan-1-yl)methoxy)-1,6-dimethylpyridin-2(1H)-one] the value was 100 to 300 nM.
For `Nc1nccc2c(NCC34CC(COc5ccn6cnnc6c5)(C3)C4)cccc12` [Example 1135, N5-((3-(([1,2,4]triazolo[4,3-a]pyridin-7-yloxy)methyl)bicyclo[1.1.1]pentan-1-yl)methyl)isoquinoline-1,5-diamine] the value was 300 to 1000 nM; for `Nc1nccc2c(NCC34CC(COc5cc6nccn6cn5)(CO3)C4)cccc12` [Example 6623, N5-((4-((imidazo[1,2-c]pyrimidin-7-yloxy)methyl)-2-oxabicyclo[2.1.1]hexan-1-yl)methyl)isoquinoline-1,5-diamine], 3000 to 10000 nM.
For `Nc1nccc2c(NCC34CC(COc5ccc6ncc(F)n6c5)(CO3)C4)cccc12` [Example 6625, N5-((4-(((3-fluoroimidazo[1,2-a]pyridin-6-yl)oxy)methyl)-2-oxabicyclo[2.1.1]hexan-1-yl)methyl)isoquinoline-1,5-diamine] the value was 300 to 1000 nM.
For the molecule `Nc1nccc2c(NCC34CC(COc5cc(C(F)(F)F)c6nccn6c5)(CO3)C4)cccc12` [Example 6630, N5-((4-(((8-(trifluoromethyl)imidazo[1,2-a]pyridin-6-yl)oxy)methyl)-2-oxabicyclo[2.1.1]hexan-1-yl)methyl)isoquinoline-1,5-diamine], the IC50 was 100 to 300 nM.
With `COc1cc(OCC23COC(CNc4cccc5c(N)nccc45)(C2)C3)cn2ccnc12` [Example 6631, N5-((4-(((8-methoxyimidazo[1,2-a]pyridin-6-yl)oxy)methyl)-2-oxabicyclo[2.1.1]hexan-1-yl)methyl)isoquinoline-1,5-diamine], the IC50 is 100 to 300 nM.
For `Cc1cn2cc(OCC34COC(CNc5cccc6c(N)nccc56)(C3)C4)ccc2n1` [Example 6633, N5-((4-(((2-methylimidazo[1,2-a]pyridin-6-yl)oxy)methyl)-2-oxabicyclo[2.1.1]hexan-1-yl)methyl)isoquinoline-1,5-diamine] the value was 100 to 300 nM.
As for `Nc1nccc2c(NCC34CC(COc5ccc6nncn6c5)(CO3)C4)cccc12` [Example 6634, N5-((4-(([1,2,4]triazolo[4,3-a]pyridin-6-yloxy)methyl)-2-oxabicyclo[2.1.1]hexan-1-yl)methyl)isoquinoline-1,5-diamine], the IC50 lay within 1000 to 3000 nM.
For `Nc1nccc2c(NCC34CC(CN5C(=O)c6ccc(O)cc6C5=O)(CO3)C4)cccc12` [Example 6635, 2-((1-(((1-aminoisoquinolin-5-yl)amino)methyl)-2-oxabicyclo[2.1.1]hexan-4-yl)methyl)-5-hydroxyisoindoline-1,3-dione] the value was 10000 to 40000 nM; for `Nc1nccc2c(NCC34CC(COc5ccc6c(c5)C(=O)NC6=O)(CO3)C4)cccc12` [Example 6636, 5-((1-(((1-aminoisoquinolin-5-yl)amino)methyl)-2-oxabicyclo[2.1.1]hexan-4-yl)methoxy)isoindoline-1,3-dione], 3000 to 10000 nM; for `Nc1nccc2c(NCC34CC(COc5ccc6c(c5)CCNC6=O)(CO3)C4)cccc12` [Example 6637, 6-((1-(((1-aminoisoquinolin-5-yl)amino)methyl)-2-oxabicyclo[2.1.1]hexan-4-yl)methoxy)-3,4-dihydroisoquinolin-1(2H)-one], 100 to 300 nM.
For the molecule `Nc1nccc2c(NCC34CC(COc5ccc6nncn6n5)(CO3)C4)cccc12` [Example 6638, N5-((4-(([1,2,4]triazolo[4,3-b]pyridazin-6-yloxy)methyl)-2-oxabicyclo[2.1.1]hexan-1-yl)methyl)isoquinoline-1,5-diamine], the concentration for half-maximal inhibition (IC50) fell in the range of 1000 to 3000 nM.
For `Nc1nccc2c(NCC34CC(COc5ccc6ncc(C7CC7)n6c5)(CO3)C4)cccc12` [Example 6639, N5-((4-(((3-cyclopropylimidazo[1,2-a]pyridin-6-yl)oxy)methyl)-2-oxabicyclo[2.1.1]hexan-1-yl)methyl)isoquinoline-1,5-diamine] the value was 10 to 100 nM; for `CN1CCc2cc(OCC34COC(CNc5cccc6c(N)nccc56)(C3)C4)ccc2C1=O` [Example 6640, 6-((1-(((1-aminoisoquinolin-5-yl)amino)methyl)-2-oxabicyclo[2.1.1]hexan-4-yl)methoxy)-2-methyl-3,4-dihydroisoquinolin-1(2H)-one], 100 to 300 nM.
For `CC(C)c1cc(OCC23COC(CNc4cccc5c(N)nccc45)(C2)C3)cn2ccnc12` [Example 6641, N5-((4-(((8-isopropylimidazo[1,2-a]pyridin-6-yl)oxy)methyl)-2-oxabicyclo[2.1.1]hexan-1-yl)methyl)isoquinoline-1,5-diamine] the value was 100 to 300 nM; for `Nc1nccc2c(NCC34CC(COc5ccc6c(c5)C(=O)NC6)(CO3)C4)cccc12` [Example 6642, 6-((1-(((1-aminoisoquinolin-5-yl)amino)methyl)-2-oxabicyclo[2.1.1]hexan-4-yl)methoxy)isoindolin-1-one], 100 to 300 nM.
For `Cn1ccc2cc(OCC34COC(CNc5cccc6c(N)nccc56)(C3)C4)ccc2c1=O` [Example 6643, 6-((1-(((1-aminoisoquinolin-5-yl)amino)methyl)-2-oxabicyclo[2.1.1]hexan-4-yl)methoxy)-2-methylisoquinolin-1(2H)-one], the IC50 lay in the range of 300 to 1000 nM.
For `Nc1nccc2c(NCC34CC(COc5ccc6ncc(C(F)F)n6c5)(CO3)C4)cccc12` [Example 6644, 5-N-[[4-[[3-(Difluoromethyl)imidazo[1,2-a]pyridin-6-yl]oxymethyl]-2-oxabicyclo[2.1.1]hexan-1-yl]methyl]isoquinoline-1,5-diamine] the value was 300 to 1000 nM.
For `Nc1nccc2c(NCC34CC(Cn5cccn5)(CO3)C4)cccc12` [Example 6645, N5-((4-((1H-pyrazol-1-yl)methyl)-2-oxabicyclo[2.1.1]hexan-1-yl)methyl)isoquinoline-1,5-diamine] the value was 10000 to 40000 nM.
For `Nc1nccc2c(NCC34CC(Cn5ccnc5)(CO3)C4)cccc12` [Example 6646, N5-((4-((1H-imidazol-1-yl)methyl)-2-oxabicyclo[2.1.1]hexan-1-yl)methyl)isoquinoline-1,5-diamine] the value was 40000 to 100000 nM.
Consider `Nc1nccc2c(NCC34CC(Cn5nccn5)(CO3)C4)cccc12` [Example 6647, N5-((4-((2H-1,2,3-triazol-2-yl)methyl)-2-oxabicyclo[2.1.1]hexan-1-yl)methyl)isoquinoline-1,5-diamine], for which the IC50 was in the range of 40000 to 100000 nM.
For `Nc1nccc2c(NCC34CC(Cn5ccnn5)(CO3)C4)cccc12` [Example 6648, N5-((4-((1H-1,2,3-triazol-1-yl)methyl)-2-oxabicyclo[2.1.1]hexan-1-yl)methyl)isoquinoline-1,5-diamine] the value was 10000 to 40000 nM; for `Nc1nccc2c(NCC34CC(CN5CCCC5=O)(CO3)C4)cccc12` [Example 6649, 1-((1-(((1-aminoisoquinolin-5-yl)amino)methyl)-2-oxabicyclo[2.1.1]hexan-4-yl)methyl)pyrrolidin-2-one], 10000 to 40000 nM.
As for `CC1(C)NC(=O)c2ccc(OCC34COC(CNc5cccc6c(N)nccc56)(C3)C4)cc21` [Example 6650, 5-((1-(((1-aminoisoquinolin-5-yl)amino)methyl)-2-oxabicyclo[2.1.1]hexan-4-yl)methoxy)-3,3-dimethylisoindolin-1-one], the IC50 fell in the range of 100 to 300 nM.

These data come from patent publication US20240327412A1, “FACTOR XIIA INHIBITORS” (KALVISTA PHARMACEUTICALS LIMITED, priority 2021, published 2024).
